Results from US10336732B2, “1-heterocyclyl isochromanyl compounds and analogs for treating CNS disorders” (Sunovion Pharmaceuticals Inc., priority 2015, dated 2019).

test system: mice; experiment: Neuropharmacological assay (SmartCube), behavioral signature of compound-treated mice; assay type: in vivo; details: i.p. 15 min before behavioral test, most efficacious dose(s) of 3 doses
Description: Neurosci. […] As reported in Roberds, because psychiatric diseases generally result from disorders of cell-cell communication or circuitry, intact systems are useful in detecting improvement in disease-relevant endpoints. These endpoints are typically behavioral in nature, often requiring human observation and interpretation. To facilitate testing of multiple compounds for behavioral effects relevant to psychiatric disease, PsychoGenics, Inc. (Tarrytown, N.Y., “PGI”) developed SmartCube™, an automated system in which behaviors of compound-treated mice are captured by digital video and analyzed with computer algorithms. […] PGI Analytical Systems uses data from SmartCube™ to compare the behavioral signature of a test compound to a database of behavioral signatures obtained using a large set of diverse reference compounds. (The composition of the database as well as validation of the method is further described in Roberds). In this way, the neuropharmacological effects of a test compound can be predicted by similarity to major classes of compounds, such as antipsychotics, anxiolytics and antidepressants.
The SmartCube™ system produces an activity signature indicating the probability that the activity of the test compound at the administered dose matches a given class of neuropharmacological agents. (See, e.g., Roberds, FIGS. 2 and 3). The test compound is simultaneously compared against multiple classes of agents; thus, a separate probability is generated for each behavioral effect measured (e.g., anxiolytic activity, analgesic activity, etc.). In Table 4, these probabilities are reported for each behavioral effect measured as follows:
Provided compounds were dissolved in a mixture of Pharmasolve™ (N-methyl-2-pyrrolidone), polyethylene glycol and propylene glycol, and were injected i.p. 15 min. before the behavioral test. For each compound, injections were administered at 3 different doses. For each behavioral effect measured, results for the most efficacious dose(s) are presented.

| SMILES | AD: ADHD (probability that behavioral signature matches class) | AG: analgesic (probability that behavioral signature matches class) | AX: anxiolytic (probability that behavioral signature matches class) | CE: cognitive enhancer (probability that behavioral signature matches class) | DP: anti-depressant (probability that behavioral signature matches class) | HA: hallucinogen (probability that behavioral signature matches class) | MS: mood stabilizer (probability that behavioral signature matches class) | PS: anti-psychotic (probability that behavioral signature matches class) | SD: sedative hypnotic (probability that behavioral signature matches class) | UN: uncharacterized CNS activity (probability that behavioral signature matches class) |
| --- | --- | --- | --- | --- | --- | --- | --- | --- | --- | --- |
| Fc1cccc2c1[C@@H]([C@@H]1CCCN1)OCC2 [Compound I-2, (S)-2-((S)-8-fluoroisochroman-1-yl)pyrrolidine] | + (LOQ ≤ + <5%) | + (LOQ ≤ + <5%) | ++ (5% ≤ ++ <25%) | + (LOQ ≤ + <5%) | + (LOQ ≤ + <5%) | + (LOQ ≤ + <5%) | ++ (5% ≤ ++ <25%) | ++ (5% ≤ ++ <25%) | ++ (5% ≤ ++ <25%) | + (LOQ ≤ + <5%) |
| Fc1cccc2c1[C@@H]([C@H]1CCCN1)OCC2 [Compound I-3, (R)-2-((S)-8-fluoroisochroman-1-yl)pyrrolidine] | + (LOQ ≤ + <5%) | ++ (5% ≤ ++ <25%) | ++ (5% ≤ ++ <25%) | ++ (5% ≤ ++ <25%) | +++ (25% ≤ +++ <50%) | + (LOQ ≤ + <5%) | ++ (5% ≤ ++ <25%) | ++ (5% ≤ ++ <25%) | ++ (5% ≤ ++ <25%) | +++ (25% ≤ +++ <50%) |
| Fc1cccc2c1[C@H]([C@H]1CCCN1)OCC2 [Compound I-4, (R)-2-((R)-8-fluoroisochroman-1-yl)pyrrolidine] | + (LOQ ≤ + <5%) | ++ (5% ≤ ++ <25%) | +++ (25% ≤ +++ <50%) | ++ (5% ≤ ++ <25%) | ++ (5% ≤ ++ <25%) | + (LOQ ≤ + <5%) | + (LOQ ≤ + <5%) | ++ (5% ≤ ++ <25%) | + (LOQ ≤ + <5%) | + (LOQ ≤ + <5%) |
| Fc1ccc2c(c1)[C@@H]([C@@H]1CCCN1)OCC2 [Compound I-6, (2S)-2-((S)-7-fluoroisochroman-1-yl)pyrrolidine] | + (LOQ ≤ + <5%) | + (LOQ ≤ + <5%) | ++ (5% ≤ ++ <25%) | + (LOQ ≤ + <5%) | ++ (5% ≤ ++ <25%) | + (LOQ ≤ + <5%) | + (LOQ ≤ + <5%) | ++ (5% ≤ ++ <25%) | + (LOQ ≤ + <5%) | +++ (25% ≤ +++ <50%) |
| Fc1ccc2c(c1)[C@H]([C@H]1CCCN1)OCC2 [Compound I-7, (R)-2-((R)-7-fluoroisochroman-1-yl)pyrrolidine] | + (LOQ ≤ + <5%) | ++ (5% ≤ ++ <25%) | ++ (5% ≤ ++ <25%) | ++ (5% ≤ ++ <25%) | ++ (5% ≤ ++ <25%) | + (LOQ ≤ + <5%) | + (LOQ ≤ + <5%) | ++ (5% ≤ ++ <25%) | + (LOQ ≤ + <5%) | +++ (25% ≤ +++ <50%) |
| Fc1ccc2c(c1)[C@@H]([C@H]1CCCN1)OCC2 [Compound I-8, (R)-2-((S)-7-fluoroisochroman-1-yl)pyrrolidine] | + (LOQ ≤ + <5%) | + (LOQ ≤ + <5%) | ++ (5% ≤ ++ <25%) | ++ (5% ≤ ++ <25%) | +++ (25% ≤ +++ <50%) | + (LOQ ≤ + <5%) | + (LOQ ≤ + <5%) | +++ (25% ≤ +++ <50%) | ++ (5% ≤ ++ <25%) | ++ (5% ≤ ++ <25%) |
| Fc1ccc2c(c1)CCO[C@@H]2[C@@H]1CCCN1 [Compound I-10, (S)-2-((S)-6-fluoroisochroman-1-yl)pyrrolidine] | + (LOQ ≤ + <5%) | ++ (5% ≤ ++ <25%) | ++ (5% ≤ ++ <25%) | ++ (5% ≤ ++ <25%) | ++ (5% ≤ ++ <25%) | + (LOQ ≤ + <5%) | + (LOQ ≤ + <5%) | ++ (5% ≤ ++ <25%) | + (LOQ ≤ + <5%) | + (LOQ ≤ + <5%) |
| Fc1ccc2c(c1)CCO[C@@H]2[C@H]1CCCN1 [Compound I-11, (R)-2-((S)-6-fluoroisochroman-1-yl)pyrrolidine] | + (LOQ ≤ + <5%) | ++ (5% ≤ ++ <25%) | ++ (5% ≤ ++ <25%) | ++ (5% ≤ ++ <25%) | ++ (5% ≤ ++ <25%) | + (LOQ ≤ + <5%) | + (LOQ ≤ + <5%) | +++ (25% ≤ +++ <50%) | + (LOQ ≤ + <5%) | ++ (5% ≤ ++ <25%) |
| Fc1ccc2c(c1)CCO[C@H]2[C@H]1CCCN1 [Compound I-12, (R)-2-((R)-6-fluoroisochroman-1-yl)pyrrolidine] | + (LOQ ≤ + <5%) | ++ (5% ≤ ++ <25%) | ++ (5% ≤ ++ <25%) | + (LOQ ≤ + <5%) | ++ (5% ≤ ++ <25%) | + (LOQ ≤ + <5%) | + (LOQ ≤ + <5%) | ++ (5% ≤ ++ <25%) | + (LOQ ≤ + <5%) | ++++ (50% ≤ ++++) |
| Fc1cccc2c1CCO[C@H]2[C@@H]1CCCN1 [Compound I-13, (S)-2-((R)-5-fluoroisochroman-1-yl)pyrrolidine] | + (LOQ ≤ + <5%) | ++ (5% ≤ ++ <25%) | ++ (5% ≤ ++ <25%) | ++ (5% ≤ ++ <25%) | +++ (25% ≤ +++ <50%) | + (LOQ ≤ + <5%) | ++ (5% ≤ ++ <25%) | ++++ (50% ≤ ++++) | + (LOQ ≤ + <5%) | ++ (5% ≤ ++ <25%) |

same assay, conditions: i.p. 15 min before behavioral test, most efficacious dose(s) of 3 doses

| SMILES | XG: anxiogenic (probability that behavioral signature matches class) |
| --- | --- |
| Fc1cccc2c1[C@@H]([C@@H]1CCCN1)OCC2 [Compound I-2, (S)-2-((S)-8-fluoroisochroman-1-yl)pyrrolidine] | + (LOQ ≤ + <5%) |
| Fc1cccc2c1[C@@H]([C@H]1CCCN1)OCC2 [Compound I-3, (R)-2-((S)-8-fluoroisochroman-1-yl)pyrrolidine] | + (LOQ ≤ + <5%) |
| Fc1cccc2c1[C@H]([C@H]1CCCN1)OCC2 [Compound I-4, (R)-2-((R)-8-fluoroisochroman-1-yl)pyrrolidine] | + (LOQ ≤ + <5%) |
| Fc1ccc2c(c1)[C@@H]([C@@H]1CCCN1)OCC2 [Compound I-6, (2S)-2-((S)-7-fluoroisochroman-1-yl)pyrrolidine] | + (LOQ ≤ + <5%) |
| Fc1ccc2c(c1)[C@H]([C@H]1CCCN1)OCC2 [Compound I-7, (R)-2-((R)-7-fluoroisochroman-1-yl)pyrrolidine] | + (LOQ ≤ + <5%) |
| Fc1ccc2c(c1)[C@@H]([C@H]1CCCN1)OCC2 [Compound I-8, (R)-2-((S)-7-fluoroisochroman-1-yl)pyrrolidine] | + (LOQ ≤ + <5%) |
| Fc1ccc2c(c1)CCO[C@@H]2[C@@H]1CCCN1 [Compound I-10, (S)-2-((S)-6-fluoroisochroman-1-yl)pyrrolidine] | + (LOQ ≤ + <5%) |
| Fc1ccc2c(c1)CCO[C@@H]2[C@H]1CCCN1 [Compound I-11, (R)-2-((S)-6-fluoroisochroman-1-yl)pyrrolidine] | + (LOQ ≤ + <5%) |
| Fc1ccc2c(c1)CCO[C@H]2[C@H]1CCCN1 [Compound I-12, (R)-2-((R)-6-fluoroisochroman-1-yl)pyrrolidine] | + (LOQ ≤ + <5%) |
| Fc1cccc2c1CCO[C@H]2[C@@H]1CCCN1 [Compound I-13, (S)-2-((R)-5-fluoroisochroman-1-yl)pyrrolidine] | + (LOQ ≤ + <5%) |
